Assay results as given in patent US9884806B2, “Cyclic vinylogous amides as bromodomain inhibitors” (ICAHN SCHOOL OF MEDICINE AT MOUNT SINAI, priority 2013, dated 2018).
Where two headings read alike, the source gives them in different places.

Tests used:
[1] = system: NO release in RAW264.7 cells; assay: LPS-stimulated nitric oxide (NO) release in murine macrophage RAW264.7 cells (Griess reaction); assay type: cell-based; details: Mus musculus, read-out: IC50 in inhibition of LPS-induced NO release
Procedure: LPS-Stimulated Nitric Oxide (NO) Release in Murine Macrophage RAW264.7 Cells
RAW264.7 cells was cultivated in DMEM supplemented with 10% FBS at 37° C. in a humidified atmosphere of 5% CO2. Cells in 96-well plates (0.1 ml, 3×10^5 cells/ml) were treated with the test compounds. After 30 min, all supernatants were removed and cells were treated with LPS (1 μg/ml) and the test compounds. After 24 hours, the level of nitrite was measured using Griess reaction G2930 (Promega Corp., Madison, Wis.) [see Bredt and Snyder, Ann Rev Biochem 63, 175-195 (1994)]. The test compounds dissolved in DMSO were diluted with culture medium to concentrations from 0.28 to 50,000 nM. The final concentration of DMSO was adjusted to 0.05% (v/v). The nitrite production was measured by spectrophotometry at 520 nm using EnVison 2104 Multilabel Reader (PerkinElmer, Inc., Waltham, Mass.). Each experiment was performed at least in triplicate and plotted using Prism.

[2] = system: mRNA transcript levels of cytokines IL-6, IL-1β and TNFα in RAW264.7 cells; assay: LPS-induced transcriptional activation of cytokines in murine macrophage cells (quantitative PCR); assay type: cell-based; details: Mus musculus
Procedure: LPS-Induced Transcriptional Activation of Cytokines in Murine Macrophage Cells RAW264.7 cells were cultivated with or without a treatment of the compounds as described above. Total RNA was isolated the cells using TRIzol reagent (Gibco, Grand Island, N.Y.) for homogenization. The concentration and integrity of RNA were determined by measuring absorbance at a 260 nm/280 nm ratio. Quantitative PCR was performed to determine the mRNA transcript levels of cytokines IL-6, IL-1β and TNFα with specific primers for these target genes. Each experiment was performed at least in triplicate, and plotted using Prim, and an IC50 value was calculated.

BRD4_2 = molecular target: T1, BRD4_2 (Homo sapiens, UniProt O60885); assay: Fluorescence anisotropy binding assay (competition with FITC-labeled MS417 probe), BRD4_2; details: FITC-MS417 probe 80 nM, PBS pH 7.4, 1 hour, 25° C.
T1 construct: contains two tandem bromodomains (BrD1 and BrD2)

[3] = molecular target: T2, first bromodomain (BrD1) of human BRD4 (Homo sapiens, UniProt O60885); assay: Fluorescence anisotropy binding assay (competition with FITC-labeled MS417 probe); details: FITC-MS417 probe 80 nM, PBS pH 7.4, 1 hour, 25° C., read-out: BRD4_1 IC50
T2 construct: the first bromodomain (BrD1) of human BRD4; poly-His (cleaved yes); made in house
Summary of the method: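 BRD4 BrD1 (His tag removed by thrombin) at 0.25 to 1 μM competed against 80 nM FITC-labeled MS417 in PBS pH 7.4. Anisotropy read after 1 hour at 25° C. Ki derived from fitted IC50 by Nikolovska-Coleska-corrected Cheng-Prusoff equation, one-site competitive model.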

[4] = Human, rat, and mouse microsome stability assay; assay type: in vitro ADME; details: Sprague-Dawley (rat), CD1 (mouse), pH 7.4, rat, and mouse liver microsomes, 0.5 μM compound, 0.25 mg/mL microsomal protein, 37° C., read-out: intrinsic clearance Clint
Procedure: Human, Rat, and Mouse Microsome Stability Assay
Human, rat, and mouse liver microsomal incubations were carried out at 37° C. with a final incubation volume of 135 μL. Human liver microsomes (mixed gender, Catalog No. H2610) were obtained from XenoTech. Rat liver microsomes (male Sprague-Dawley, Catalog No. 452501) were obtained from BD Gentest. Mouse liver microsomes (male CD1, Catalog No. 452701) were obtained from BD Gentest. Incubations were conducted using a test compound (initially dissolved in DMSO at […] concentration) concentration of 0.5 μM and 0.25 mg/mL microsomal protein in 50 mM phosphate buffer at pH 7.4. Time zero samples were prepared by transferring 13.5 μL of compound-microsomal mix to the quench plates containing 45 μL of quench solution made of 10 nM Buspirone (Sigma) or 50 nM Carbutamide (Princeton Bio) as internal standard in 1:1 methanol:acetonitrile. An aliquot of 1.5 μL Nicotinamide adenine dinucleotide phosphate reduced tetrasodium salt (NADPH) was also added to the time zero plates. The reaction was then initiated by the addition of 13.5 μL NADPH to the compound-microsomal mix. At each of the remaining time points (5, 10, 15, 20, 30, 45 and 60 min) 15 μL of incubation mixture was added to 45 μL of quench solution. Samples were centrifuged for 15-30 minutes at 3800 rpm. Samples were then pooled for 6 per group. An aliquot of 60 μL of supernatant was transferred to 96-well plate, and a 5 μL aliquot was injected and analyzed by LC-MS (Applied Biosystems API 5500 QTrap).

[5] = system: IL-8 expression in human basal-like breast cancer cells (BLBCs); assay: ELISA assay assessing IL-8 expression in BLBCs; assay type: cell-based; details: read-out: IC50, inhibition of IL-8 expression
Procedure: ELISA Assay Assessing IL-8 Expression in BLBCs […] The following day upon cells adhesion to the plate bottom, all supernatants were carefully discarded followed by adding test compounds diluted in culturing medium. The test compounds dissolved in DMSO (Sigma-Aldrich Chemical Co., St. […] The final concentration of DMSO was adjusted to 0.05% (v/v). At the end of 24-hour incubation, all supernatants were carefully removed and stored at −80° C. if the subsequent steps would not be performed immediately. The Human IL-8 ELISA Ready-Set-Go! (2nd generation) is used (Catalog No. 88-8086) against the prepared samples. The samples along with the Standard Human IL-8 Recombinant Protein (prepared in duplicates in a 2-fold serial dilution from 250 pg/ml to 2 pg/ml) were incubated overnight for maximal sensitivity. The assay was measured by an absorption reading at 450 nm using EnVision 2104 Multilabel Reader (PerkinElmer, Inc., Waltham, Mass.). Each experiment was performed at least in duplicate and plotted using Prism. The curve fitting equation used was “log(inhibitor) vs. response variable slope (four parameters)”.

[6] = system: primary human AML stem- and progenitor cells; details: cited from earlier work
[7] = RAW264.7 cells, LPS 1 μg/ml, 24 hours, nitrite by Griess reaction
[8] = RAW264.7 cells, LPS, quantitative PCR of mRNA transcript levels, read-out: IC50 in inhibition of transcriptional activation of the cytokines IL-6, IL-1β and TNFα
[9] = RAW264.7, read-out: IC50 in inhibition of transcriptional activation of the cytokines IL-6, IL-1β and TNFα
[10] = panel of human BLBC cells MDA-MB-435S, MDA-MB-231, BT-549, MDA-MB-157, HS578T, SUM1315, 24-hour incubation

In the case of `CC1=C(Nc2cc(C(=O)O)ccc2Cl)CCCC1=O` [Example 01-36, 4-chloro-3((2-methyl-3-oxocyclohex-1-en-1-yl)amino)benzoic acid], the IC50 [1, 7] is reported as 100 to 5000 nM, the melting point is reported as 232 to 235 °C and the IC50 [2, 8] is reported as 100 to 5000 nM. For the same molecule, the IC50 (BRD4_2) was over 10 µM and the IC50 [3] was over 10000 nM.
In the case of `CC1=C(Nc2ccc3cc(C(=O)O)ccc3c2)CCCC1=O` [Example 01-41, 6((2-methyl-3-oxocyclohex-1-en-1-yl)amino)-2-naphthoic acid], the microsomal CLint at 0.5 μM [4] is reported as 25 to 250 µL/min/mg, the melting point is reported as 259 to 263 °C and the IC50 (BRD4_2) is reported as 1 to 10 µM. The IC50 [3] was 1000 to 10000 nM.
Molecule `CC1=C(Nc2cc(C(=O)Nc3ccccc3C)ccc2Cl)CCC1=O` [Example 04-89, 4-chloro-3-((2-methyl-3-oxocyclopent-1-en-1-yl)amino)-N-(o-tolyl)benzamide] has an IC50 ([1]; RAW264.7, 24 h) of 100 to 5000 nM, an IC50 [2, 9] of 100 to 5000 nM and an IC50 (BRD4_2) of 1 to 10 µM. It also gave an IC50 [3] of under 1000 nM.
Molecule `CC1=C(Nc2cc(C(=O)Nc3ccccc3C)ccc2Cl)CCCC1=O` [Example 04-91, 4-chloro-3-((2-methyl-3-oxocyclohex-1-en-1-yl)amino)-N-(o-tolyl)benzamide] has an IC50 [1, 7] of 100 to 5000 nM, an IC50 [2, 8] of 100 to 5000 nM and an IC50 (BRD4_2) of 1 to 10 µM. It also gave an IC50 [3] of 1000 to 10000 nM.
With `COc1ccc(NC(=O)Cc2cccc(NC3=C(C)C(=O)CCC3)c2)cc1` [Example 04-98, N-(4-methoxyphenyl)-2-(3-((2-methyl-3-oxocyclohex-1-en-1-yl)amino)phenyl)-acetamide] the IC50 ([1]; RAW264.7, 24 h) was 100 to 5000 nM, the IC50 [2, 9] was 100 to 5000 nM and the IC50 (BRD4_2) was over 10 µM. It also gave an IC50 [3] of over 10000 nM.
`CC1=C(Nc2ccc(C(=O)Nc3ccccc3C)cc2Cl)CCCC1=O` [Example 05-15, 3-chloro-4-((2-methyl-3-oxocyclohex-1-en-1-yl)amino)-N-(o-tolyl)benzamide] gave an IC50 [1, 7] of 100 to 5000 nM, an IC50 [2, 8] of 100 to 5000 nM and an IC50 (BRD4_2) of 1 to 10 µM. For the same molecule, the IC50 [3] was under 1000 nM.
`CC1=C(Nc2cc(NS(=O)(=O)c3ccccc3C)ccc2Cl)CCC1=O` [Example 05-57, N-(4-chloro-3-((2-methyl-3-oxocyclopent-1-en-1-yl)amino)phenyl)-2-methylbenzenesulfonamide] showed a microsomal CLint at 0.5 μM [4] of 25 to 250 µL/min/mg, a melting point of 236 to 238 °C and an IC50 ([5]; Homo sapiens, 24 h) of 100 to 1000 nM. For the same molecule, the IC50 (BRD4_2) was under 1 µM and the IC50 [3] was under 1000 nM.
For `CC1=C(Nc2cc(NS(=O)(=O)c3ccccc3C)ccc2Cl)CCCC1=O` [Example 05-66, N-(4-chloro-3-((2-methyl-3-oxocyclohex-1-en-1-yl)amino)phenyl)-2-methylbenzenesulfonamide], the microsomal CLint at 0.5 μM [4] was 25 to 250 µL/min/mg, the melting point was 246 to 248 °C and the IC50 (BRD4_2) was under 1 µM. The IC50 [3] was under 1000 nM.
For `CC1=C(Nc2ccc(NS(=O)(=O)c3ccccc3C)cc2Cl)CCCC1=O` [Example 05-68, N-(3-chloro-4-((2-methyl-3-oxocyclohex-1-en-1-yl)amino)phenyl)-2-methylbenzenesulfonamide], the microsomal CLint at 0.5 μM [4] was 25 to 250 µL/min/mg, the melting point was 248 to 250 °C and the IC50 [5, 10] was 100 to 1000 nM. For the same molecule, the IC50 (BRD4_2) was 1 to 10 µM and the IC50 [3] was under 1000 nM.
With `CC1=C(Nc2cccc(NS(=O)(=O)c3ccccc3C)c2Cl)CCCC1=O` [Example 05-70, N-(2-chloro-3-((2-methyl-3-oxocyclohex-1-en-1-yl)amino)phenyl)-2-methylbenzenesulfonamide] the microsomal CLint at 0.5 μM [4] was 25 to 250 µL/min/mg, the melting point was 185 to 187 °C and the IC50 [5, 10] was 100 to 1000 nM. The IC50 (BRD4_2) was over 10 µM and the IC50 [3] was under 1000 nM.
Molecule `CC1=C(Nc2cccc(-c3cn(Cc4ccccc4)nn3)c2)CCC1=O` [Example 06-04, 3-((3-(1-benzyl-1H-1,2,3-triazol-4-yl)phenyl)amino)-2-methylcyclopent-2-enone] has an IC50 [1, 7] of 100 to 5000 nM, an IC50 [2, 8] of 100 to 5000 nM and an IC50 (BRD4_2) of 1 to 10 µM. It also gave an IC50 [3] of under 1000 nM.
For `Cc1sc2c(c1C)C(c1ccc(Cl)cc1)=N[C@@H](CC(=O)OC(C)(C)C)c1nnc(C)n1-2` [JQ1], the “apoptosis in CD34+/CD38− and CD34+/CD38+ stem- and progenitor cells” value ([6]; all donors) is given as “induce apoptosis” and the growth-inhibition and apoptosis ([6]; primary human AML stem- and progenitor cells, including relapsed or refractory patients) is given as “leads to growth-inhibition and apoptosis”.
